Assay results as given in patent publication US10081635B2, “Substituted N-(pyrrolidine-3-yl)-7H-pyrrolo[2,3-D]pyrimidine-4-amine as janus kinase inhibitor” (YANG JI CHEMICAL CO., LTD., priority 2014, dated 2018).

Experiments:
Assay type in all cases: biochemical
Human JAK3 = Human JAK3 (Homo sapiens (Human), UniProt P52333); test: In vitro kinase inhibition test, JAK3 (33P-ATP filter scintillation); conditions: compound at 1 uM; read-out: JAK3 kinase-phosphorylation inhibitory level (% inhibition)
Chain of Human JAK3 (P52333 whole entry): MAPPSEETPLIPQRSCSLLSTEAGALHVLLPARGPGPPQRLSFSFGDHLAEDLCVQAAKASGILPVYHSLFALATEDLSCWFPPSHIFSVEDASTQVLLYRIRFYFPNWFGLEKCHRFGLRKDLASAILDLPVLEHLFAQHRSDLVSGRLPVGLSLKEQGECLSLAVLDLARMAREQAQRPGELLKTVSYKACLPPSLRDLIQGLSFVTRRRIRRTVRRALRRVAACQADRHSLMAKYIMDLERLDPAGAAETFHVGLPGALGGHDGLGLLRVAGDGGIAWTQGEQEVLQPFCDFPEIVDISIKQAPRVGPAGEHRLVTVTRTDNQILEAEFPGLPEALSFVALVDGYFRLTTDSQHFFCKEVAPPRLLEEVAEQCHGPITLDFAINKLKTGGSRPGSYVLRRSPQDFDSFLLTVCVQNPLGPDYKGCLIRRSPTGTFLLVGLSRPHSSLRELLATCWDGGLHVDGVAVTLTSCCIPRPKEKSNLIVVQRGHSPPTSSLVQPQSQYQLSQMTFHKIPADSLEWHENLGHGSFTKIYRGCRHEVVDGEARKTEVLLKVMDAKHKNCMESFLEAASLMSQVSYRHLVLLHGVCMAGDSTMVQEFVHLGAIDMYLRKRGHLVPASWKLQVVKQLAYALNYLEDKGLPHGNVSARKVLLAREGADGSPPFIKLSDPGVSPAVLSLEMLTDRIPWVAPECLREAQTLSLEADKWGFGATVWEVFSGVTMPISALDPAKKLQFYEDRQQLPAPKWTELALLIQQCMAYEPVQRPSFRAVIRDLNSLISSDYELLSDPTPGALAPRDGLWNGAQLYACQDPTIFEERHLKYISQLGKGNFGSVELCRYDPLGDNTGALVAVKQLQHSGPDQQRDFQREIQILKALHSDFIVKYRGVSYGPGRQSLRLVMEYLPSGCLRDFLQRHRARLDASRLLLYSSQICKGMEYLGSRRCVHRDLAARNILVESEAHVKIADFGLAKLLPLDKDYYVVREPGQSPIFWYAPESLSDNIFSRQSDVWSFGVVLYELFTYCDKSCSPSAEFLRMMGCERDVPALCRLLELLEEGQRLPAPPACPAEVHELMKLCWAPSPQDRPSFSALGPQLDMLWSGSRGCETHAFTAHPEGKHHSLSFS
Experimental: (§1) 1. In Vitro Kinase Inhibition Test
(§2) Kinases used were human-derived JAK1, JAK2, JAK3, and TYK2 (Millipore, Germany). Each of these kinases was diluted with a suitable buffer solution as described below, and then mixed with reagents.
(§3) 3-morpholinopropane-1-sulfonic acid (MOPS) and EDTA were dissolved in distilled water at a concentration of 20 mM and 1 mM, respectively, and 100 uL of β-mercaptoethanol, 10 uL of Brij-35™, 5 mL of glycerol, and 100 mg of bovine serum albumin (BSA), each per 100 mL of the solution, were added to the solution, thereby preparing a JAK2, JAK3, and TYK2 dilution buffer solution.
(§4) Each compound was dissolved in a 100% DMSO solution at a 50 uM concentration. This solution was reacted with reagents in wells on a 96-well plate to reach a final concentration of 1 uM. Detailed experimental methods for each kinase are described below.
(§5) After reaction for about 40 minutes at room temperature, the reaction was stopped by adding 5 uL of a 3% (v/v) phosphoric acid solution.
(§6) In Tables 5 and 6, the numbers in the “Example” column, which are identification numbers of the examples, indicate the compounds synthesized in the corresponding examples, the values in the “JAK1”, “JAK2”, “JAK3”, and “TYK2” columns represent kinase-phosphorylation inhibitory levels as a percentage (%) of the compounds synthesized in the corresponding examples at a 1 uM concentration. In Tables 5 and 6, negative values substantially indicate no inhibitory effect.
(§7) The inhibitory levels (% inhibition) represent a percentage of reduction in phosphorylation activity in each test group with respect to the phosphorylation activity of a corresponding kinase in a negative control group lacking any of the compounds synthesized in the examples. % inhibition=[(Scintillation value of Test compound non-treatment group−Scintillation value of Test compound treatment group)/(Scintillation value of Test compound non-treatment group)]×100

Human JAK1 = Human JAK1 (Homo sapiens (Human), UniProt P23458); test: In vitro kinase inhibition test, JAK1 (33P-ATP filter scintillation); conditions: compound at 1 uM; read-out: JAK1 kinase-phosphorylation inhibitory level (% inhibition)
Chain of Human JAK1 (P23458 whole entry): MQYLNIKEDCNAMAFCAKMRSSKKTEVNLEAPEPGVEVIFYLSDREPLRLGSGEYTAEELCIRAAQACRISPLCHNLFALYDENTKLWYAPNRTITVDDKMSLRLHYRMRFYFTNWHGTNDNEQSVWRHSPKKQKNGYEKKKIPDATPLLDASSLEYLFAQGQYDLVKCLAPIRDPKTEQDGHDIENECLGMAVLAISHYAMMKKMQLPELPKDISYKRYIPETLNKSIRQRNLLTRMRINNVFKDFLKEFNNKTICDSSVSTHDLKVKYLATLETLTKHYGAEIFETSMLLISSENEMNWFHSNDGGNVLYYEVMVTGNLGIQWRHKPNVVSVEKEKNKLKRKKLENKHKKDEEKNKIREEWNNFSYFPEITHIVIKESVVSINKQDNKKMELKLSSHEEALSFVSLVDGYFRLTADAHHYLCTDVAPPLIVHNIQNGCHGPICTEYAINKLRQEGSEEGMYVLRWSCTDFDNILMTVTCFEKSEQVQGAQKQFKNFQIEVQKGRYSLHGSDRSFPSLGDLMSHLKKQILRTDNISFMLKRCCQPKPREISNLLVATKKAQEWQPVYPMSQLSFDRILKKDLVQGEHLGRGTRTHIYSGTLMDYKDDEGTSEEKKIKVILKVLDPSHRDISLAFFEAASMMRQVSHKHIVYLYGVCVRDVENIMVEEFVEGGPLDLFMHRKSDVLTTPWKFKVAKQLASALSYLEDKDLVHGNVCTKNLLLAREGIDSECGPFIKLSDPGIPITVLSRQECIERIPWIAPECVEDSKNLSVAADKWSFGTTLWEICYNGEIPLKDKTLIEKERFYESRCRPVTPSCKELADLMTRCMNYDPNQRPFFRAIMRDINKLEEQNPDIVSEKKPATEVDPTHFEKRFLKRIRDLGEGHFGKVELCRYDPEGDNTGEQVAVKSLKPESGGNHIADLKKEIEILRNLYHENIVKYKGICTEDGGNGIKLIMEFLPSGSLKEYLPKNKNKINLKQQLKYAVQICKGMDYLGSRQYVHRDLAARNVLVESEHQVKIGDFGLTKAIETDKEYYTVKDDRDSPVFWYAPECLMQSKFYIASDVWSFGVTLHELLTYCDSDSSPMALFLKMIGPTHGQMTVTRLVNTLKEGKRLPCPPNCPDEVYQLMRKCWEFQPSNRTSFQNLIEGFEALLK
Experimental: as §1, §2
Tris(hydroxymethyl)aminomethane (TRIS) and ethylenediaminetetraacetic acid (EDTA) were dissolved in distilled water at a concentration of 20 mM and 0.2 mM, respectively, and 100 uL of β-mercaptoethanol, 10 uL of Brij-35™, and 5 mL of glycerol, each per 100 mL of the solution, were added to the solution, thereby preparing a JAK1 dilution buffer solution.
as §4
After reaction for about 40 minutes at room temperature, the reaction was stopped by adding 5 uL of a 3% (v/v) phosphoric acid solution. […] The methanol drying is a drying process using an azeotropic effect, wherein methanol is added into an aqueous solution for drying.
as §6, §7

Human TYK2 = Human TYK2 (Homo sapiens (Human), UniProt P29597); test: In vitro kinase inhibition test, TYK2 (33P-ATP filter scintillation); conditions: compound at 1 uM; read-out: TYK2 kinase-phosphorylation inhibitory level (% inhibition)
Chain of Human TYK2 (P29597 whole entry): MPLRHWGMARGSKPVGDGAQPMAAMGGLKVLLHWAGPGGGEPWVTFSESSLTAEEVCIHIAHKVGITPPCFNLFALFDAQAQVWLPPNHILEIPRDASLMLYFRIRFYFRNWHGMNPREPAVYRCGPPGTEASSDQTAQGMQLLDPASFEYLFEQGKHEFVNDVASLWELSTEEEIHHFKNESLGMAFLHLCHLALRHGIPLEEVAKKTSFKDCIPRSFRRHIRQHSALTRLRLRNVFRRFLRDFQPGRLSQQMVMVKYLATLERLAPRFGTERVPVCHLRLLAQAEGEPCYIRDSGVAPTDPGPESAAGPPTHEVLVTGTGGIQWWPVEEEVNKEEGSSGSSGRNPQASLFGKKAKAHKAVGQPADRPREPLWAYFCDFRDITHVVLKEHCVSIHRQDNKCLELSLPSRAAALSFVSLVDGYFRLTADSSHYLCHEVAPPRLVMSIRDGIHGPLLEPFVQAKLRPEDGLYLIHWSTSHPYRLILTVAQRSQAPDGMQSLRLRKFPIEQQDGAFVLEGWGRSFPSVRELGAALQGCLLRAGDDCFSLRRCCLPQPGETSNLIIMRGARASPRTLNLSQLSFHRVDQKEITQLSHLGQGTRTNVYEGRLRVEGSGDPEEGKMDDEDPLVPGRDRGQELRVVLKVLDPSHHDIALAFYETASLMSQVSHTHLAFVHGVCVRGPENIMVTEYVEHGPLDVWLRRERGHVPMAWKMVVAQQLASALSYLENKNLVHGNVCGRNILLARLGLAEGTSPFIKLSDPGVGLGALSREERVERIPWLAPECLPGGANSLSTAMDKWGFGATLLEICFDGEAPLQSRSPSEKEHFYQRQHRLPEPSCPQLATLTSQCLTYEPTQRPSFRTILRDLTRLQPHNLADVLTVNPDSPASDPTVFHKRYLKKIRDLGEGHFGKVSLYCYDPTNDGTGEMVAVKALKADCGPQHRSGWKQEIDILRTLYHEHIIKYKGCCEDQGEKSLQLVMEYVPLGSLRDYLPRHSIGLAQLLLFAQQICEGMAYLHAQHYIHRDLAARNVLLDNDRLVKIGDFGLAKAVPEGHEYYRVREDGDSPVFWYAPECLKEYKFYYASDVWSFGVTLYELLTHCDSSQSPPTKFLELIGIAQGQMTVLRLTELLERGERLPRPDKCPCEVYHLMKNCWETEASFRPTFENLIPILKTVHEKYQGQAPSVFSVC
Experimental: as §1, §2, §3, §4, §5, §6, §7

Human JAK2 = Human JAK2 (Homo sapiens (Human), UniProt O60674); test: In vitro kinase inhibition test, JAK2 (33P-ATP filter scintillation); conditions: compound at 1 uM; read-out: JAK2 kinase-phosphorylation inhibitory level (% inhibition)
Chain of Human JAK2 (O60674 whole entry): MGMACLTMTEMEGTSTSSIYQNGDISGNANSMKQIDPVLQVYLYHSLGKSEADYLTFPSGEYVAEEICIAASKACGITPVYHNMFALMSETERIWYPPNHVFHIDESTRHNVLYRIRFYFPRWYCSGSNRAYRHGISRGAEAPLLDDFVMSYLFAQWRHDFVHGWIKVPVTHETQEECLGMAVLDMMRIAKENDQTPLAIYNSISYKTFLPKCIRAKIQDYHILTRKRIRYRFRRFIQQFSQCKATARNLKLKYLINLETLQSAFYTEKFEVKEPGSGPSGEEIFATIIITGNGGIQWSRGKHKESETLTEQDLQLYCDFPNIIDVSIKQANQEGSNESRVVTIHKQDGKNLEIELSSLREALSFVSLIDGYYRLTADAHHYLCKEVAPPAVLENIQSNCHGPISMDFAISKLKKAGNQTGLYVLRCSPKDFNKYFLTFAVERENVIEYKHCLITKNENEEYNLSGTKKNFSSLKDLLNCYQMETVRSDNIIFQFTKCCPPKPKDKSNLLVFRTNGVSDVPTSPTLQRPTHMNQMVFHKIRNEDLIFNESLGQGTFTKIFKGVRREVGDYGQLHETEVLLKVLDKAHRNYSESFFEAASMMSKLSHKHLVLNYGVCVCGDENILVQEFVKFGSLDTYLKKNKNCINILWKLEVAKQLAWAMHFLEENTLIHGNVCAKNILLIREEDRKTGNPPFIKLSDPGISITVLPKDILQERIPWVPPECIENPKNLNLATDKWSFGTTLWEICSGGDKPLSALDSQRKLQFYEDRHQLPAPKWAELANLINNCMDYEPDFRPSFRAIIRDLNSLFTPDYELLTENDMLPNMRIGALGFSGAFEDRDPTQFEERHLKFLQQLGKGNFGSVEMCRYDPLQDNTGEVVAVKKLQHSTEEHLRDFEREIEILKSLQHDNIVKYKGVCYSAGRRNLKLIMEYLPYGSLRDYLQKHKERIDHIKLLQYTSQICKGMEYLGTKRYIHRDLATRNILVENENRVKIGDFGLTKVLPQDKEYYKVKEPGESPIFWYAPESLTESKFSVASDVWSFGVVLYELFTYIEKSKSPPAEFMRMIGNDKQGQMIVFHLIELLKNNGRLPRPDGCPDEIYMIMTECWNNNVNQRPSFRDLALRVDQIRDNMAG
Experimental: as §1, §2, §3, §4, §5, §6, §7

Structure (SMILES)	inhibition at 1 µM (Human JAK3) [%]	inhibition at 1 µM (Human JAK1) [%]	inhibition at 1 µM (Human TYK2) [%]	inhibition at 1 µM (Human JAK2) [%]
CN(c1ncnc2[nH]ccc12)[C@H]1CN(C(=O)Nc2ccccc2)CC12CC2 [Example 23, (R)-7-(methyl(7H-pyrrolo[2,3-d]pyrimidin-4-yl)amino)-N-phenyl-5-azaspiro[2.4]heptane-5-carboxamide]	50	98	78	52
CN(c1ncnc2[nH]ccc12)[C@H]1CN(C(=O)Nc2ccc(F)cc2)CC12CC2 [Example 24, (R)-N-(4-fluorophenyl)-7-(methyl(7H-pyrrolo[2,3-d]pyrimidin-4-yl)amino)-5-azaspiro[2.4]heptane-5-carboxamide]	48	94	47	6
CN(c1ncnc2[nH]ccc12)[C@H]1CN(C(=O)Nc2ccc(Cl)cc2Cl)CC12CC2 [Example 25, (R)-N-(2,4-dichlorophenyl)-7-(methyl(7H-pyrrolo[2,3-d]pyrimidin-4-yl)amino)-5-azaspiro[2.4]heptane-5-carboxamide]	25	88	48	5
CN(c1ncnc2[nH]ccc12)[C@H]1CN(C(=O)Nc2ccc(Cl)c(Cl)c2)CC12CC2 [Example 26, (R)-N-(3,4-dichlorophenyl)-7-(methyl(7H-pyrrolo[2,3-d]pyrimidin-4-yl)amino)-5-azaspiro[2.4]heptane-5-carboxamide]	51	94	42	13
CN(c1ncnc2[nH]ccc12)[C@H]1CN(C(=O)Nc2cc(Cl)ccc2Cl)CC12CC2 [Example 27, (R)-N-(2,5-dichlorophenyl)-7-(methyl(7H-pyrrolo[2,3-d]pyrimidin-4-yl)amino)-5-azaspiro[2.4]heptane-5-carboxamide]	17	91	27	-1
CN(c1ncnc2[nH]ccc12)[C@H]1CN(C(=O)Nc2cccc(Cl)c2Cl)CC12CC2 [Example 28, (R)-N-(2,3-dichlorophenyl)-7-(methyl(7H-pyrrolo[2,3-d]pyrimidin-4-yl)amino)-5-azaspiro[2.4]heptane-5-carboxamide]	40	91	39	23
Cc1ccc(NC(=O)N2C[C@H](N(C)c3ncnc4[nH]ccc34)C3(CC3)C2)cc1Cl [Example 29, (R)-N-(3-chloro-4-methylphenyl)-7-(methyl(7H-pyrrolo[2,3-d]pyrimidin-4-yl)amino)-5-azaspiro[2.4]heptane-5-carboxamide]	39	92	43	19
CN(c1ncnc2[nH]ccc12)[C@H]1CN(C(=O)Nc2ccccc2-c2ccccc2)CC12CC2 [Example 30, (R)-N-([1,1′-biphenyl]-2-yl)-7-(methyl(7H-pyrrolo[2,3-d]pyrimidin-4-yl)amino)-5-azaspiro[2.4]heptane-5-carboxamide]	14	80	27	-11
CN(c1ncnc2[nH]ccc12)[C@H]1CN(C(=S)Nc2cc(C(F)(F)F)cc(C(F)(F)F)c2)CC12CC2 [Example 31, (R)-N-(3,5-bis(trifluoromethyl)phenyl)-7-(methyl(7H-pyrrolo[2,3-d]pyrimidin-4-yl)amino)-5-azaspiro[2.4]heptane-5-carbothioamide]	13	62	1	-26
CN(c1ncnc2[nH]ccc12)[C@H]1CN(S(=O)(=O)C(F)(F)F)CC12CC2 [Example 32, (R)-N-methyl-N-(5-((trifluoromethyl)sulfonyl)-5-azaspiro[2.4]heptan-7-yl)-7H-pyrrolo[2,3-d]pyrimidin-4-amine]	59	97	86	68
CCS(=O)(=O)N1C[C@H](N(C)c2ncnc3[nH]ccc23)C2(CC2)C1 [Example 33, (R)-N-(5-(ethylsulfonyl)-5-azaspiro[2.4]heptan-7-yl)-N-methyl-7H-pyrrolo[2,3-d]pyrimidin-4-amine]	70	98	88	84
CC(C)S(=O)(=O)N1C[C@H](N(C)c2ncnc3[nH]ccc23)C2(CC2)C1 [Example 34, (R)-N-(5-(isopropylsulfonyl)-5-azaspiro[2.4]heptan-7-yl)-N-methyl-7H-pyrrolo[2,3-d]pyrimidin-4-amine]	56	97	72	76
CCCS(=O)(=O)N1C[C@H](N(C)c2ncnc3[nH]ccc23)C2(CC2)C1 [Example 35, (R)-N-methyl-N-(5-(propylsulfonyl)-5-azaspiro[2.4]heptan-7-yl)-7H-pyrrolo[2,3-d]pyrimidin-4-amine]	77	99	89	78
CN(c1ncnc2[nH]ccc12)[C@H]1CN(S(=O)(=O)c2ccccc2)CC12CC2 [Example 36, (R)-N-methyl-N-(5-(phenylsulfonyl)-5-azaspiro[2.4]heptan-7-yl)-7H-pyrrolo[2,3-d]pyrimidin-4-amine]	52	97	91	90
CN(c1ncnc2[nH]ccc12)[C@H]1CN(S(=O)(=O)c2ccccc2F)CC12CC2 [Example 37, (R)-N-(5-((2-fluorophenyl)sulfonyl)-5-azaspiro[2.4]heptan-7-yl)-N-methyl-7H-pyrrolo[2,3-d]pyrimidin-4-amine]	61	98	90	84
CN(c1ncnc2[nH]ccc12)[C@H]1CN(S(=O)(=O)c2cccc(F)c2)CC12CC2 [Example 38, (R)-N-(5-((3-fluorophenyl)sulfonyl)-5-azaspiro[2.4]heptan-7-yl)-N-methyl-7H-pyrrolo[2,3-d]pyrimidin-4-amine]	84	100	97	97
CN(c1ncnc2[nH]ccc12)[C@H]1CN(S(=O)(=O)c2ccc(F)cc2)CC12CC2 [Example 39, (R)-N-(5-((4-fluorophenyl)sulfonyl)-5-azaspiro[2.4]heptan-7-yl)-N-methyl-7H-pyrrolo[2,3-d]pyrimidin-4-amine]	65	99	93	95
CN(c1ncnc2[nH]ccc12)[C@H]1CN(S(=O)(=O)c2ccccc2C#N)CC12CC2 [Example 40, (R)-2-((7-(methyl(7H-pyrrolo[2,3-d]pyrimidin-4-yl)amino)-5-azaspiro[2.4]heptan-5-yl)sulfonyl)benzonitrile]	47	94	72	64
CN(c1ncnc2[nH]ccc12)[C@H]1CN(S(=O)(=O)c2ccc(C#N)cc2)CC12CC2 [Example 42, (R)-4-((7-(methyl(7H-pyrrolo[2,3-d]pyrimidin-4-yl)amino)-5-azaspiro[2.4]heptan-5-yl)sulfonyl)benzonitrile]	33	97	68	49
CN(c1ncnc2[nH]ccc12)[C@H]1CN(S(=O)(=O)c2ccccc2[N+](=O)[O-])CC12CC2 [Example 43, (R)-N-methyl-N-(5-((2-nitrophenyl)sulfonyl)-5-azaspiro[2.4]heptan-7-yl)-7H-pyrrolo[2,3-d]pyrimidin-4-amine]	75	97	78	70
